Experimental data reported in patent US20230092890A1, “1, 3, 4-Oxadiazole derivative compounds as histone deacetylase 6 inhibitor, and the pharmaceutical composition comprising the same” (Chong Kun Dang Pharmaceutical Corp., priority 2019, published 2023).

Assays:
HDAC6 human recombinant = target: T1, HDAC6 human recombinant (Homo sapiens, UniProt Q9UBN7); assay: HDAC enzyme activity inhibition (in vitro), HDAC6 assay; type: biochemical; conditions: samples at 0.1, 1, 10, 100 and 1000 nM; 37° C. 60 minutes; fluorescence Ex 390, Em 460; read-out: HDAC6 IC50
T1 construct: purchased Calbiochem 382180
T1 sequence (Q9UBN7 1-1215): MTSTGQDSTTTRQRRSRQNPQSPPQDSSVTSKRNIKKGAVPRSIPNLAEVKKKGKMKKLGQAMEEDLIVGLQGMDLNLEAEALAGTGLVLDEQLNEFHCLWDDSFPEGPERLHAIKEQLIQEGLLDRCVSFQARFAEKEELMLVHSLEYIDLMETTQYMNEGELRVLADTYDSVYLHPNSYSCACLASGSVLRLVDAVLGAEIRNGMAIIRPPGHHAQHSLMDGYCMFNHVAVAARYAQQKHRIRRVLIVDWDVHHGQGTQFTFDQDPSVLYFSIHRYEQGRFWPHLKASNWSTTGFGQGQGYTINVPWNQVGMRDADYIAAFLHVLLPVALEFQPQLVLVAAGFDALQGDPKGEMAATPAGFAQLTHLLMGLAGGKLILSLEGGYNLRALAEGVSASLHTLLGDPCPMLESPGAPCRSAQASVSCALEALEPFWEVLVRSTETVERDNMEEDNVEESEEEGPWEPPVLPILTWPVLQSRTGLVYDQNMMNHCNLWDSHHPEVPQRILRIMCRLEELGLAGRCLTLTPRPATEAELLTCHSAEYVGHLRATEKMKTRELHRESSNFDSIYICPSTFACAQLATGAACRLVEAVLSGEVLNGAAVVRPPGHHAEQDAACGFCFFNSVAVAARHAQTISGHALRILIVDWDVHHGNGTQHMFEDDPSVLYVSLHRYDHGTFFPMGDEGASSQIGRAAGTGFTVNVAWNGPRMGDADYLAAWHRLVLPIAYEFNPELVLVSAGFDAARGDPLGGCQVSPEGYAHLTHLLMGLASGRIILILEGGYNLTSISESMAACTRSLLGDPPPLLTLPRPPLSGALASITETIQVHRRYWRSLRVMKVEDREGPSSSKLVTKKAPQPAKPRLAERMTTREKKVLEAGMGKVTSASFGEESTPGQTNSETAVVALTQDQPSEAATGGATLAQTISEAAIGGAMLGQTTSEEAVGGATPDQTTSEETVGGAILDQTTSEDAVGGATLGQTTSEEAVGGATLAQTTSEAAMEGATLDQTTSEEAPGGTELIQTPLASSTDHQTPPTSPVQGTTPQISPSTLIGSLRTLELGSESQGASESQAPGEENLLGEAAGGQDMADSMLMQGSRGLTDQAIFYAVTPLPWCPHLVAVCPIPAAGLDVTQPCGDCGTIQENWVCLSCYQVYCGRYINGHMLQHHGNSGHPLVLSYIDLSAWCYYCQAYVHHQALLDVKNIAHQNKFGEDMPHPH
Method in brief: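 HDAC6 human recombinant enzyme with fluorimetric substrate; […]. Reaction 60 min at 37° C, then developer 30 min at 37° C; fluorescence read at Ex 390/Em 460.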

HDAC1 = target: T2, HDAC1 (Homo sapiens, UniProt Q13547); assay: HDAC enzyme activity inhibition (in vitro), HDAC1 Fluorimetric Drug Discovery Assay Kit; type: biochemical; conditions: samples at 100, 1000 and 10000 nM; 37° C. 60 minutes; fluorescence Ex 390, Em 460; read-out: HDAC1 IC50
T2 construct: purchased Enzolifesciences BML-AK511
T2 sequence (Q13547 whole entry): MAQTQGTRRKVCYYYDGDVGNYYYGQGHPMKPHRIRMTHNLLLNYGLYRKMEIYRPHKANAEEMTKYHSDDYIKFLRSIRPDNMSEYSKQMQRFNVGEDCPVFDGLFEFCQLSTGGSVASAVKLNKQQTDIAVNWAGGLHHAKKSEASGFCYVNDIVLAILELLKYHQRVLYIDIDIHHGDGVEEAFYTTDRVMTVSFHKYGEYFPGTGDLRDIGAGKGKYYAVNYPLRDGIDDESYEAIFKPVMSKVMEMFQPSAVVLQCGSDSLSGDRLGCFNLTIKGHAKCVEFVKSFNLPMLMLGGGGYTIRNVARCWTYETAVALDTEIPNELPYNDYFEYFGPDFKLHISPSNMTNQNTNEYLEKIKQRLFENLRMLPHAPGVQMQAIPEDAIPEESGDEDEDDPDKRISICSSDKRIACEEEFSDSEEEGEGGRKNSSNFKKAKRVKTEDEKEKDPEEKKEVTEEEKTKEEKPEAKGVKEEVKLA
Method in brief: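 Compound incubated with enzyme 60 min at 37° C, then developer 30 min at 37° C; fluorescence read at Ex 390/Em 460. HDAC1 via fluorimetric kit, compounds at 100, 1000 and 10000 nM; HDAC6 human recombinant, compounds at 0.1, 1, 10, 100 and 1000 nM.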

Row | IC50 (HDAC6 human recombinant) [nM] | IC50 (HDAC1) [nM] | SMILES
1 | 38 | > 10000 | O=c1n(Cc2ccc(-c3nnc(C(F)F)o3)cn2)c2cc(F)ccc2n1C1CN(C2COC2)C1 [Compound 302, 3-((5-(5-(difluoromethyl)-1,3,4-oxadiazole-2-yl)pyridine-2-yl)methyl)-5-fluoro-1-(1-(oxetan-3-yl)azetidine-3-yl)-1,3-dihydro-2H-benzo[d]imidazole-2-one]
2 | 138 | > 10000 | Cn1c(=O)n(Cc2ccc(-c3nnc(C(F)F)o3)cn2)c2cc(F)c(-c3ccc(C(F)(F)F)cc3)cc21 [Compound 167, 1-((5-(5-(difluoromethyl)-1,3,4-oxadiazole-2-yl)pyridine-2-yl)methyl)-6-fluoro-3-methy 1-5-(4-(trifluoromethyl)phenyl)-1,3-dihydro-2H-benzo[d]imidazole-2-one]
3 | 51 | > 10000 | O=c1n(Cc2ccc(-c3nnc(C(F)F)o3)cn2)c2cc(F)c(-c3cccc4[nH]ccc34)cc2n1C1CCN(CC(F)(F)F)CC1 [Compound 239, 1-((5-(5-(difluoromethyl)-1,3,4-oxadiazole-2-yl)pyridine-2-yl)methyl)-6-fluoro-5-(1H-indole-4-yl)-3-(1-(2,2,2-trifluoroethyl)piperidine-4-yl)-1,3-dihydro-2H-benzo[d]imidazole-2-one]
4 | 65 | > 10000 | Cn1c(=O)n(Cc2ccc(-c3nnc(C(F)F)o3)cc2F)c2cc(F)c(-c3ccc(CN4CCOCC4)nc3)cc21 [Compound 340, 1-(4-(5-(difluoromethyl)-1,3,4-oxadiazole-2-yl)-2-fluorobenzyl)-6-fluoro-3-methyl-5-(6-(morpholinomethyl)pyridine-3-yl)-1,3-dihydro-2H-benzo[d]imidazole-2-one]
5 | 374 | > 10000 | CN1CCC(n2c(=O)n(Cc3ccc(-c4nnc(C(F)F)o4)cn3)c3cc(F)c(-c4ccc5c(ccn5C(=O)OC(C)(C)C)c4)cc32)CC1 [Compound 251, tert-butyl 5-(1-((5-(5-(difluoromethyl)-1,3,4-oxadiazole-2-yl)pyridine-2-yl)methyl)-6-fluoro-3-(1-methylpiperidine-4-yl)-2-oxo-2,3-dihydro-1H-benzo[d]imidazole-5-yl)-1H-indole-1-carboxylate]
6 | 8 | > 10000 | Cn1c(=O)n(Cc2ccc(-c3nnc(C(F)F)o3)cn2)c2ccc(-c3ccn[nH]3)cc21 [Compound 221, 1-((5-(5-(difluoromethyl)-1,3,4-oxadiazole-2-yl)pyridine-2-yl)methyl)-3-methyl-5-(1H-pyrazole-5-yl)-1,3-dihydro-2H-benzo[d]imidazole-2-one]
7 | 151 | > 10000 | O=c1oc2cc(-c3ccc(N4CCN(CC(F)(F)F)CC4)nc3)c(F)cc2n1Cc1ccc(-c2nnc(C(F)F)o2)cn1 [Compound 351, 3-((5-(5-(difluoromethyl)-1,3,4-oxadiazole-2-yl)pyridine-2-yl)methyl)-5-fluoro-6-(6-(4-(2,2,2-trifluoroethyl)piperazine-1-yl)pyridine-3-yl)benzo[d]oxazole-2(3H)-one]
8 | 20 | > 10000 | Cc1noc(C)c1-c1cc2c(cc1F)n(Cc1ccc(-c3nnc(C(F)F)o3)cn1)c(=O)n2C [Compound 178, 1-((5-(5-(difluoromethyl)-1,3,4-oxadiazole-2-yl)pyridine-2-yl)methyl)-5-(3,5-dimethylisoxazole-4-yl)-6-fluoro-3-methyl-1,3-dihydro-2H-benzo[d]imidazole-2-one]
9 | 207 | > 10000 | Cc1cc2cc(-c3cc4c(cc3F)n(Cc3ccc(-c5nnc(C(F)F)o5)cn3)c(=O)n4C3CCN(C)CC3)ccc2n1C(=O)OC(C)(C)C [Compound 252, tert-butyl 5-(1-((5-(5-(difluoromethyl)-1,3,4-oxadiazole-2-yl)pyridine-2-yl)methyl)-6-fluoro-3-(1-methylpiperidine-4-yl)-2-oxo-2,3-dihydro-1H-benzo[d]imidazole-5-yl)-2-methyl-1H-indole-1-carboxylate]

The next lines start with the compound.

Row | SMILES | IC50 (HDAC6 human recombinant) [nM] | IC50 (HDAC1) [nM]
10 | CN(C)CCn1c(=O)n(Cc2ccc(-c3nnc(C(F)F)o3)cc2F)c2ccccc21 [Compound 36, 1-(4-(5-(difluoromethyl)-1,3,4-oxadiazole-2-yl)-2-fluorobenzyl)-3-(2-(dimethylamino)ethyl)-1,3-dihydro-2H-benzo[d]imidazole-2-one] | 131 | > 10000
11 | O=c1n(Cc2ccc(-c3nnc(C(F)F)o3)cc2F)c2cc(Cl)c(Cl)cc2n1C1CCN(C2COC2)CC1 [Compound 88, 5,6-dichloro-1-(4-(5-(difluoromethyl)-1,3,4-oxadiazole-2-yl)-2-fluorobenzyl)-3-(1-(oxetan-3-yl)piperidine-4-yl)-1,3-dihydro-2H-benzo[d]imidazole-2-one] | 38 | > 10000
12 | CN1CCC(n2c(=O)n(Cc3ccc(-c4nnc(C(F)F)o4)cn3)c3cc(F)c(-c4cccc(F)c4)cc32)CC1 [Compound 154, 1-((5-(5-(difluoromethyl)-1,3,4-oxadiazole-2-yl)pyridine-2-yl)methyl)-6-fluoro-5-(3-fluorophenyl)-3-(1-methylpiperidine-4-yl)-1,3-dihydro-2H-benzo[d]imidazole-2-one] | 42 | > 10000
13 | CN1CCC(n2c(=O)n(Cc3ccc(-c4nnc(C(F)F)o4)cn3)c3cc(F)c(-c4ccccc4F)cc32)CC1 [Compound 152, 1-((5-(5-(difluoromethyl)-1,3,4-oxadiazole-2-yl)pyridine-2-yl)methyl)-6-fluoro-5-(2-fluorophenyl)-3-(1-methylpiperidine-4-yl)-1,3-dihydro-2H-benzo[d]imidazole-2-one] | 34 | > 10000
14 | CN1CCC(n2c(=O)n(Cc3ccc(-c4nnc(C(F)F)o4)cc3F)c3ccccc32)CC1 [Compound 1, 1-(4-(5-(difluoromethyl)-1,3,4-oxadiazole-2-yl)-2-fluorobenzyl)-3-(1-methylpiperidine-4-yl)-1,3-dihydro-2H-benzo[d]imidazole-2-one] | 236 | > 10000
15 | CN1CCC(n2c(=O)n(Cc3ccc(-c4nnc(C(F)F)o4)cc3F)c3ccc(-c4cccnc4)cc32)CC1 [Compound 139, 1-(4-(5-(difluoromethyl)-1,3,4-oxadiazole-2-yl)-2-fluorobenzyl)-3-(1-methylpiperidine-4-yl)-5-(pyridine-3-yl)-1,3-dihydro-2H-benzo[d]imidazole-2-one] | 31 | > 10000
16 | CN1CCC(n2c(=O)n(Cc3ccc(-c4nnc(C(F)F)o4)cc3F)c3cc(F)c(-c4cccnc4)cc32)CC1 [Compound 117, 1-(4-(5-(difluoromethyl)-1,3,4-oxadiazole-2-yl)-2-fluorobenzyl)-6-fluoro-3-(1-methylpiperidine-4-yl)-5-(pyridine-3-yl)-1,3-dihydro-2H-benzo[d]imidazole-2-one] | 24 | > 10000
17 | CN1CCC(n2c(=O)n(Cc3ccc(-c4nnc(C(F)F)o4)cn3)c3cc(F)ccc32)CC1 [Compound 48, 3-((5-(5-(difluoromethyl)-1,3,4-oxadiazole-2-yl)pyridine-2-yl)methyl)-5-fluoro-1-(1-methylpiperidine-4-yl)-1,3-dihydro-2H-benzo[d]imidazole-2-one] | 22 | > 10000
